Measured values as given in a melting point compilation (Tetko et al.).

Row | melting point [°C] | Compound
1 | 124 | Oc1ccc(Br)c2cccnc12
2 | 42 | CCS(=O)(=O)c1ccccc1
3 | 110 | O=C(O)c1c(F)cnc(F)c1F
4 | 97 to 98 | O=Cc1cccn1-c1ccc(C(F)(F)F)cc1
5 | 68 to 73 | COc1ccc(Br)cc1CO
6 | 207 | COc1cc2c(Cc3ccccc3)cncc2cc1O
7 | 215 | CC(=O)C(=NNc1ccc(C(=O)O)cc1)C(C)=O
8 | 148 to 152 | COc1ccc(C(N)=S)cc1
9 | 140 | CC(=O)/C(=N\Nc1ccc([N+](=O)[O-])cc1)C(=O)C(F)(F)F
10 | 289 | N#Cc1cc2c(=O)oc3ccccc3c2nc1N
11 | 250 | O=C(O)c1ccnc(C(=O)O)c1C(=O)O
12 | 162 | Cc1nn(C(=O)c2ccncc2)c2c1nnc1ccc(Cl)cc12
13 | 152 to 153 | O=C(c1ccccc1)c1cnc2ccccn2c1=O
14 | 96 | O=C(Nc1ccccc1[N+](=O)[O-])c1ccccc1
15 | 40 | CCOc1ccccc1C(C)=O
16 | 80.5 | CC(C)OC(=O)C(C)(C)Oc1ccc(C(=O)c2ccc(Cl)cc2)cc1
17 | 94 to 96 | CSc1nc(=O)n(Cc2ccccc2)c2c1CCC2
18 | 45 to 46 | CCOC(=O)c1c(N=C=S)sc2c1CCCC2
19 | 201 | O=Cc1cc(I)c(O)c(I)c1
20 | 113 | COc1ccc(C(=O)OCCOc2ccc(C=CC(=O)c3ccccc3)cc2)cc1
21 | 207 to 208 | O=C(COc1ccccc1)c1ccc(O)cc1O
22 | 147 | NS(=O)(=O)c1cc(C(F)(F)F)ccc1C(F)(F)F
23 | 112 | COc1c(F)ccc(C(N)=O)c1F
24 | 80.3 | COc1cc(O)cc(O)c1
25 | 193 | Oc1ccc2ccc(O)cc2c1
26 | 150 | CCOC(=O)c1cc2cc(F)ccc2[nH]1
27 | 216 | COc1cc(C2Nn3c(nnc3-c3cccnc3)S2)ccc1O (stereo unspecified)
28 | 37 to 39 | COc1ccc(C)cc1O

Row | melting point [°C] | Compound
29 | 129 | Cc1cc(C#N)cc(Cl)c1N
30 | 185 to 188 | Cc1n[nH]c(SCC(=O)c2ccc(Cl)cc2)n1
31 | 164 | O=C(O)c1c(Cl)cccc1[N+](=O)[O-]
32 | 121 | O=C1Cc2cccc3cccc1c23
33 | 64 | CC(=O)c1csc2ccccc12
34 | 33 | CC(C)Oc1ccc(S(=O)(=O)Cl)cc1
35 | 53 to 55 | CCSc1ncccc1C(=O)Cl
36 | 105 | Nc1ccccc1SC(=O)c1ccccc1
37 | 26 | CCC(C)c1cc([N+](=O)[O-])cc([N+](=O)[O-])c1OC(C)=O (stereo unspecified)
38 | 103 to 105 | CC(C)Nc1ccc(C(F)(F)F)cc1[N+](=O)[O-]
39 | 113 to 115 | O=C(Cl)c1ccc(-c2cccs2)cc1
40 | 189 to 190 | NC(=O)NN=C(c1cc2ccccc2o1)c1cc2ccccc2o1
41 | 56 to 57 | O=C(Cl)C1COc2ccccc2O1 (stereo unspecified)
42 | 164 to 165 | Cc1nc2sccn2c1C(=O)O
43 | 218 to 222 | O=C(O)C=Cc1cc([N+](=O)[O-])ccc1Cl
44 | 94 | CC(=O)CCc1oc2ccc(I)cc2c1-c1ccc(C)o1
45 | 245 | O=C(O)C1=Cc2cc(Cl)ccc2OC1
46 | 60 | O=C(CCCl)c1ccc(Br)cc1
47 | 123 to 124 | CCOC(=O)C(C#N)=Cc1ccc(-c2ccc(C)cc2)o1
48 | 129 to 131 | CC(C)(C)OC(=O)NCC(N)=S
49 | 221 to 223 | NC(=O)c1ccc(CC(=O)c2ccc(Cl)cc2)cc1
50 | 138 to 140 | Cc1nc(/C(C#N)=C\c2ccc(Cl)cc2Cl)sc1/N=N/c1ccc(F)cc1
51 | 59.5 | C#CCOC(=O)C(C)Oc1ccc(Oc2ncc(Cl)cc2F)cc1 (stereo unspecified)
52 | 148 | O=C(O)c1cc(Cl)sc1Cl
53 | 217 | COc1cc([C@@H](O)[C@H](CO)Oc2c(OC)cccc2OC)cc(OC)c1O
54 | 43 | CC(=O)c1cccc(S(=O)(=O)Cl)c1
55 | 44.5 | OCc1ccc(F)cc1Cl

Second part, the molecule before the results:

Row | Compound | melting point [°C]
56 | O=[N+]([O-])c1cccc(C2OCCO2)c1 | 54
57 | O=P1(NC2CCCCC2)Oc2ccccc2-c2ccccc2O1 | 160
58 | CCCCCCCCC1CCCC1 | -44
59 | O=C(NCC(c1ccccc1)c1ccccc1)c1ccccc1 | 123
60 | CCON=C(CC)C1=C(O)CC(c2c(C)cc(C)cc2C)CC1=O (stereo unspecified) | 110
61 | NNC(=S)NCc1ccccc1 | 130
62 | CC1=C(C)C(=O)OC1=O | 96
63 | Ic1nccn1C(c1ccccc1)(c1ccccc1)c1ccccc1 | 171
64 | CCN(CC)CCC1(c2ccccc2)C(=O)Oc2ccccc21 (stereo unspecified) | 43.4
65 | O=C(O)[C@@H]1Cc2ccccc2CN1C(=O)OCC1c2ccccc2-c2ccccc21 | 146 to 149
66 | CN(C)CCCN1c2ccccc2Sc2ccccc21 | 33
67 | CC(=O)OCCBr | -13.8
68 | CC(C)(C)OC(=O)NO | 57
69 | CCOc1ccc(N=Nc2ccc(OCC)cc2)cc1 | 162
70 | C#CCCCCCCCC | -44
71 | CC(C)(C)OC(=O)N1CCN(C(=O)OCC2c3ccccc3-c3ccccc32)C(C(=O)O)C1 (stereo unspecified) | 163 to 166
72 | C=CCC#N | -87
73 | Cc1cc(Br)c(Br)cc1C | 86
74 | O=C1C(Cl)C(CCl)CN1c1cccc(C(F)(F)F)c1 (stereo unspecified) | 67.7
75 | Cc1ccc(S(=O)(=O)N(C)N=O)cc1 | 60
76 | CC(C)(C)C(C)(C)O | 17
77 | O=[N+]([O-])c1cccc2cccc(/C=N\c3ccccc3)c12 | 114 to 115
78 | CN1C(=O)CC[C@H]1c1cccnc1 | 41
79 | N#CC1=C(C#N)C(=O)C(NCCc2ccccc2)=C(Cl)C1=O | 265 to 267
80 | N[C@@H]1CC[C@H](C(=O)O)C1 | 192
81 | CCCCCCCCCCCCCCCCCCCCBr | 37.5

Row | Compound | melting point [°C]
82 | ClCc1cc(-c2ccco2)on1 | 47 to 49
83 | COc1ccc(C=C2C(=O)NC(=O)NC2=O)cc1OC | 265
84 | NNC(=S)NN | 168 to 172
85 | CN1C(CC(=O)c2ccccc2)CCCC1CC(O)c1ccccc1 (stereo unspecified) | 130
86 | CC(C)CCSCCC(C)C | -74.6
87 | CC(O)C(C)C(C)(C)C (stereo unspecified) | 27
88 | O=[N+]([O-])c1ccc(C(O)C(O)CO)cc1 (stereo unspecified) | 93 to 97
89 | CCCCCCF | -103
90 | CCC(C)n1c(=O)[nH]c(C)c(Br)c1=O (stereo unspecified) | 158
91 | O=C1CC(=O)N(c2ccccc2)N1 | 191
92 | O=C=Nc1ccccc1Cl | 30.5
93 | CCCCCCCCCCCCCCCC(N)=O | 107
94 | COC(=O)Cn1nnc(N2CCOCC2)n1 | 100 to 103
95 | C1CCNC1 | -57.8
96 | CON=C(C)c1cccc(Oc2nc(OC)cc(OC)n2)c1C(=O)OC | 107
97 | O=[N+]([O-])c1ccccc1CCO | 2
98 | CCOC(=O)C1Cc2cc3c(cc2NC1=O)NC(=O)C(C(=O)OCC)C3 (stereo unspecified) | 242
99 | O=C(/C(=N/Nc1ccc(Br)cc1)S(=O)(=O)c1ccccc1)c1cccs1 | 158
100 | N#Cc1cccc(Cn2c(=O)oc3ccccc32)c1 | 170 to 172
101 | O=C(O)C(O)C(O)C(O)C(O)C(=O)O (stereo unspecified) | 230
102 | CC(C)(C)OC(=O)N1C2CCC1CC(=O)C2 | 58 to 59
103 | C=C(C)CCCCCCCCCCCCCCCCC | 20
104 | Cc1ccc(Br)cc1Br | -9.7
105 | OCC1C2C=CC(C2)C1CO (stereo unspecified) | 85 to 85.5
106 | CN(C)c1ccc(C2Nc3nc(C(F)(F)F)nn3C(N)=C2C#N)cc1 (stereo unspecified) | 164
107 | O=Cc1cccc2ccnn12 | 85

Row | Compound | melting point [°C]
108 | Cc1cc(N=Nc2ccc(N=Nc3ccccc3)cc2)c(C(C)C)cc1N=Nc1ccc(N=Nc2ccccc2)cc1 | 226
109 | CC(Br)C(C)(C)Br (stereo unspecified) | 11
110 | CC1(C)C(=O)OOC1=O | 44 to 45
111 | O=Cc1ccccc1OCc1ccccc1 | 47
112 | C[C@@]12CC[C@@H]3[C@H](CC[C@]4(C)C(=O)CC[C@]34C)[C@@]1(C)CCC(=O)C2 | 184 to 186
113 | O=C(CCl)OCCOC(=O)CCl | 45.5
114 | N#CC(C#N)=Cc1sccc1C=O | 126 to 130
115 | O=C(Cl)c1sccc1Cl | 45 to 46
116 | CCCCCCCCCCCCCCCCCCCCCCCO | 74 to 76
117 | Cc1ccc(N)c([N+](=O)[O-])c1 | 116
118 | C[C@H](O)C(=O)O | 53
119 | CC(C)CCC[C@@H](C)[C@H]1CC[C@H]2[C@@H]3CC[C@H]4C[C@H](O)CC[C@]4(C)[C@H]3CC[C@]12C | 186
120 | N#C/C(=C/c1ccco1)c1nc(-c2ccc(Br)cc2)cs1 | 174
121 | Cn1c(=O)c(C2=NNC(=O)C2=NNc2ccc(I)cc2)c(O)c2ccccc21 | 262
122 | O=C(NC(=O)c1c(F)cccc1F)Nc1ccc(OC(F)(F)C(F)OC(F)(F)F)c(Cl)c1 (stereo unspecified) | 178
123 | CC(=O)NC(C)=O | 79
124 | OCC(F)(F)C(F)(F)C(F)(F)C(F)(F)C(F)(F)C(F)(F)C(F)(F)F | 43 to 47
125 | O=C(c1ccccc1)C1CNc2cc3c(cc2C1)CC(C(=O)c1ccccc1)CN3 (stereo unspecified) | 209
126 | O=c1ccc2cc3ccoc3c(O)c2o1 | 252
127 | CCNC1=NC(=O)C(c2ccccc2)O1 (stereo unspecified) | 148
128 | c1ccc(C2CC2)cc1 | -31
129 | CC1=NN(c2ccccc2)C(=O)C1Cc1ccc(O)cc1 (stereo unspecified) | 210
130 | Cc1cc(I)cnc1Br | 45
131 | CCOC(=O)NC1C(N(C)C)C2CCC1(C)C2(C)C (stereo unspecified) | 237
